Literature values as cited in patent US20070081962A1, “Novel delivery of immune response modifiers for removal of chronic tattoos” (priority 2005, published 2007).

Tested on: freshly applied tattoos
Settings: guinea pigs tattooed with commonly used tattoo inks; topical 5% cream, initiated within six hours of the tattoo application and continued for seven days

CC(C)Cn1cnc2c(N)nc3ccccc3c21 [irmiquimod, 1-(2-methylpropyl)-1H-imidazo[4,5-c]quinolin-4-amine]
removal of freshly applied tattoos: effective for removing freshly applied tattoos
